Experimental findings from ChEMBL document CHEMBL3044616, “Synthesis, crystal structure and -glucuronidase inhibition activity of some new hydrazinecarboxamides and their 1,2,4-triazole derivatives” (Med Chem Res, 2012) are described below.

For one assay, the system named is Escherichia coli. As to the kind of experiment: Inhibition of Escherichia coli beta-glucuronidase using para-nitrophenyl-beta-D-glucuronide as substrate at 0.2 mM incubated for 30 min prior to substrate addition measured for 30 min by spectrophotometric analysis.
The nature of assay [1]: Inhibition of Escherichia coli beta-glucuronidase using para-nitrophenyl-beta-D-glucuronide as substrate incubated for 30 min prior to substrate addition measured for 30 min by spectrophotometric analysis.

Each structure is given as a SMILES string. Activity calls are given as the source filed them. No cut-off for these calls is given here.

Regarding `COc1cccc(CCc2n[nH]c(=O)n2-c2cccc(OC)c2)c1`, in the assay with Escherichia coli, the inhibition entry was “inactive”.

Consider `COc1cccc(NC(=O)NNC(=O)Cc2ccccc2OC)c1`, for which, in the assay with Escherichia coli, the inhibition turned out to be 46.5%.

On to `COc1ccccc1CCc1n[nH]c(=O)n1-c1ccccc1OC`, for which, in the assay on Escherichia coli, the inhibition entry is “inactive”.

As for `COc1ccc(CCc2n[nH]c(=O)n2-c2ccccc2OC)cc1`, the inhibition entry in the assay with Escherichia coli is “inactive”.

As to `COc1ccccc1CC(=O)NNC(=O)Nc1ccccc1OC`, in assay [1], the IC50 was determined as 40.7 µM. This compound also gave an inhibition in the assay on Escherichia coli of 88.8%.

On to `COc1cccc(-n2c(Cc3ccccc3OC)n[nH]c2=O)c1`, for which the inhibition entry with Escherichia coli is “inactive”.

For `COc1cccc(Cc2n[nH]c(=O)n2-c2ccccc2OC)c1`, the inhibition entry in the assay with Escherichia coli was “inactive”.

In assay [1], `COc1cccc(CCC(=O)NNC(=O)Nc2cccc(OC)c2)c1` came in with an IC50 of 179 µM. The inhibition in the assay on Escherichia coli was determined as 52%.

For `COc1cccc(CCc2n[nH]c(=O)n2-c2ccccc2OC)c1`, the inhibition result in the assay on Escherichia coli was “inactive”.

Turning to `COc1ccc(Cc2n[nH]c(=O)n2-c2ccccc2OC)cc1`, the inhibition result with Escherichia coli is “inactive”.

The compound `COc1cccc(NC(=O)NNC(=O)CCc2ccccc2OC)c1` had an IC50 in assay [1] of 83.7 µM. In the assay with Escherichia coli, this compound registered an inhibition of 54.6%.

In assay [1], `COc1ccc(NC(=O)NNC(=O)CCc2ccccc2OC)cc1` registered a half-inhibitory concentration (IC50) of 15.5 µM. The compound further returned an inhibition in the assay with Escherichia coli of 87.9%.

`COc1cccc(CCC(=O)NNC(=O)Nc2ccccc2OC)c1`: the concentration for half-maximal inhibition (IC50) in assay [1] turned out to be 52.4 µM. In the assay with Escherichia coli, this compound came in with an inhibition of 82.9%.

For the compound `COc1ccc(-n2c(CCc3ccccc3OC)n[nH]c2=O)cc1`, the inhibition result with Escherichia coli was “inactive”.

As to `COc1ccccc1Cc1n[nH]c(=O)n1-c1ccccc1OC`, in the assay on Escherichia coli, the inhibition entry is “inactive”.

For the compound `COc1ccc(CCC(=O)NNC(=O)Nc2ccccc2OC)cc1`, in assay [1], half-maximal inhibition (IC50) required 46.1 µM. Moreover, in the assay on Escherichia coli, the inhibition is 83.7%.

Regarding `COc1ccc(CCC(=O)NNC(=O)Nc2cccc(OC)c2)cc1`, the IC50 in assay [1] was 96.7 µM. This compound also registered an inhibition in the assay on Escherichia coli of 59.3%.

Turning to `COc1cccc(Cc2n[nH]c(=O)n2-c2cccc(OC)c2)c1`, the inhibition entry in the assay on Escherichia coli was “inactive”.

As to `COc1ccc(CCc2n[nH]c(=O)n2-c2cccc(OC)c2)cc1`, in the assay with Escherichia coli, the inhibition result is “inactive”.

`COc1cccc(CC(=O)NNC(=O)Nc2cccc(OC)c2)c1`: in assay [1], the IC50 was found to be 101 µM. Further, the inhibition in the assay on Escherichia coli is 70.8%.

The compound `COc1ccc(NC(=O)NNC(=O)CCc2cccc(OC)c2)cc1` showed an IC50 in assay [1] of 74.5 µM. In addition, the inhibition with Escherichia coli was 73.3%.

`COc1ccccc1CCC(=O)NNC(=O)Nc1ccccc1OC`: in assay [1], the IC50 was found to be 67.3 µM. In the assay on Escherichia coli, the inhibition was determined as 77.6%.

With `COc1cccc(-n2c(CCc3ccccc3OC)n[nH]c2=O)c1`, the inhibition entry in the assay on Escherichia coli was “inactive”.

`COc1cccc(CC(=O)NNC(=O)Nc2ccccc2OC)c1`: the half-maximal inhibitory concentration (IC50) in assay [1] was found to be 134 µM. The compound also had an inhibition in the assay on Escherichia coli of 68.3%.

Regarding `COc1ccc(CC(=O)NNC(=O)Nc2ccccc2OC)cc1`, 16.8 µM corresponded to half-maximal inhibition in assay [1] (IC50). In addition, the inhibition in the assay on Escherichia coli was 94.5%.

In the case of `O=C(O)[C@@H](O)[C@H]1OC(=O)[C@H](O)[C@H]1O`, the inhibition in the assay on Escherichia coli was 86.2%.
